# According to patent US6368812B1 (priority 1996, dated 2002):
# Biological target: T1, human α1A adrenergic receptor (Homo sapiens, UniProt P35348)
# T1 construct: expressed in transfected cells; host or cells: Xenopus laevis oocytes, mRNA-injected
# T1 sequence (P35348 1-466): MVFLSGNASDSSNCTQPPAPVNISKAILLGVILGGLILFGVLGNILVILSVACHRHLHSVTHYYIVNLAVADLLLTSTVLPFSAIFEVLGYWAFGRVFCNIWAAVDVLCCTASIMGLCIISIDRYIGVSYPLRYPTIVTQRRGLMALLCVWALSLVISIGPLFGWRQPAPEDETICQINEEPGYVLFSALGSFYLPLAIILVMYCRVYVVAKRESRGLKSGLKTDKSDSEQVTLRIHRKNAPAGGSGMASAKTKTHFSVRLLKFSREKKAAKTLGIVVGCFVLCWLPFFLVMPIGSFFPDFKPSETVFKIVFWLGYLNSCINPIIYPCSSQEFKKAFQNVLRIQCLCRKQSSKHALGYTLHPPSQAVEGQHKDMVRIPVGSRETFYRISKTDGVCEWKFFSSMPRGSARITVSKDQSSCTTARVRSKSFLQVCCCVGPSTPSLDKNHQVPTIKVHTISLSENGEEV
# Assay type: cell-based
# Description: FIG. 7 Pertussis toxin sensitivity of GalR3 and GalR1 stimulation of GIRK currents. […] . Number of observations appears in parenthesis below the x-axis. Apparent absence of a bar indicates an amplitude of 0 (no response above baseline).
# 5′-[…] […]-3′ (SEQ ID NO. 59). […] The new plasmid was designated M52.
# Experiments were carried out at room temperature.
compound,measurement,value
CNC[C@H](O)c1ccc(O)c(O)c1 [epinephrine],Cl− currents in oocytes expressing α1a receptors,stimulates transient Cl^− currents
